# Source: publication PMC3642162 (FEBS Open Bio, 2012)
# Experiments:
# human TRα-1 = target: T1, human TRα-1 (Homo sapiens, UniProt P10827); format: cell-based
# T1 sequence (P10827 149-407 isoform P10827-2): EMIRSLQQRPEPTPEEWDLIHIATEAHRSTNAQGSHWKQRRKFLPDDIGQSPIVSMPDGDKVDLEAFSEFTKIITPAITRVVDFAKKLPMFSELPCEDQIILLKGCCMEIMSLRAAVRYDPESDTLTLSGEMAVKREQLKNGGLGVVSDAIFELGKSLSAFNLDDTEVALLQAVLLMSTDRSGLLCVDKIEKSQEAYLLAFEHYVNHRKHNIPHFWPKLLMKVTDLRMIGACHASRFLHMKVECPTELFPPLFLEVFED
# TRα = details: transcriptional activation assay; cited from earlier work
# TRα and TRβ = details: cited from earlier work
# human TRα-1 and TRβ-1 = test: TR biosensors; format: cell-based; details: both biosensor strains
# TRβ = details: cited from earlier work
# human ER β = human ER β biosensor, relative to 100% for 17-β-estradiol; cited from earlier work
# porcine ER β = porcine ER β biosensor; cited from earlier work
SMILES,"Other methods, reported activity (TRα and TRβ)","TR biosensors, qualitative activity (human TRα-1 and TRβ-1)",other results
"Cc1cc(OCC(=O)O)cc(C)c1Cc1ccc(O)c(C(C)C)c1 [GC-1, 3,5-dimethyl-4-(4′-hydroxy-3′-isopropylbenzyl)-phenoxy acetic acid]","Agonist, TRβ selective","Agonist, TRβ selective","EC50T3/EC50Ligand·100% (human TRα-1): 89.66%; Detection limit (lowest concentration giving unambiguous growth signal) (human TRα-1; TRα biosensor, visual inspection of dose-response curves): […]; Z′ (human TRα-1; pMIT::TRα-1, Z′ factor, highest vs lowest ligand concentration): 0.79; EC50 (TRα): […]"
"CC(C)c1cc(Oc2c(Cl)cc(CC(=O)O)cc2Cl)ccc1O [KB-141, 3,5-dichloro-4-(4-hydroxy-3-isopropylphenoxy) phenylacetic acid]","Agonist, TRβ selective","Agonist, TRβ selective",–
"N[C@@H](Cc1cc(I)c(Oc2ccc(O)c(I)c2)c(I)c1)C(=O)[O-].O.[Na+] [T3, 3,3′,5-triiodo-L-thyronine sodium salt hydrate]",Agonist,Agonist,–
"O=C(O)Cc1cc(I)c(Oc2ccc(O)c(I)c2)c(I)c1 [Triac, 3,3′,5-triiodothyroacetic acid]","Agonist, TRβ selective","Agonist, TRβ selective",Potency higher than T3 (TRα and TRβ; binding to TRβ): 6 fold; Affinity higher than T3 (TRβ): approximately 3 fold
CC(C)(c1ccc(O)cc1)c1ccc(O)cc1 [bisphenol A],–,–,Relative binding affinity (RBA=EC50Estradiol/EC50Ligand×100 %) (human ER β): 1.15%; Relative binding affinity (RBA=EC50Estradiol/EC50Ligand×100 %) (porcine ER β): 0.13%
